Laboratory results reported in US6693083B2, “Conjugates targeted to the interleukin-2 receptor” (Watson Pharmaceuticals, Inc., priority 1997, dated 2004).
“Also recorded” adds a separate entry of the source. Where two headings read alike, the source gives them in different places. Where no end group is shown, it is not given here. PEG = not defined here; ADR = adriamycin

Experiments:
mouse CTLL-2 cells = test: In vitro cytotoxic activity against mouse CTLL-2 cells (MTS cell viability assay)
Protocol: CTLL-2 cells express the IL-2 high affinity receptor. […] Thereafter, cell viability was assessed by a colorimetric method using the tetrazolium compound MTS (3-(4,5-dimethylthiazol-2-yl)-5-(3-carboxymethoxyphenyl)-2-(4-sulfophenyl)-2H-tetrazolium, inner salt) and an electron coupling reagent, PMS (phenazine methosulfate). A. J. Cory et al., 3 Cancer Commun. […] MTS is bioreduced by living cells into a soluble formazan product. The absorbence of the formazan at 490 nm can be measured directly from 96 well assay plates without additional processing. The quantity of formazan product as measured by the absorbence at 490 nm is directly proportional to the number of living cells in culture. Reagents for the MTS assay were obtained from Promega Corp. (Madison, Wis.). […] The plate was then further incubated at 37° C. in a humidified, 5% CO2 atmosphere for 4 hours. The absorbence of each well was then measured at 490 nm with an EL311 Microplate Autoreader (Bio-Tek Instruments). The mean absorbence for each treatment was then calculated, and the percent cytotoxicity was determined using the formula: [formula]
wherein AS represents the mean absorbence for each treatment and AC represents mean absorbence of the control treatment, i.e. cells not exposed to a conjugate.

[1] = test system: IL-2-induced proliferation of murine splenocytes; test: Inhibition of IL-2-induced proliferation of murine splenocytes (trypan blue viable cell count); type: cell-based, mouse; settings: for specific binding to the IL-2 receptor: concluded from inhibition of IL-2-induced proliferation (Example 20)
Protocol: The in vitro effects of IL-2-receptor-targeted conjugates on IL-2-induced proliferation of murine splenocytes was examined.
A sterile splenocyte suspension was prepared as follows. Spleens were aseptically removed from male C57 BL/6 mice and placed in sterile tissue culture medium (RPMI plus 10% fetal calf serum). The spleens were teased apart and gently aspirated using a Pasteur pipet. The resulting spleen cell suspension was then filtered through sterile gauze and centrifuged at 150×g for 10 minutes at 20° C. […] After 30 seconds, an equal volume of tissue culture medium was added to the suspension to restore isotonicity. The cell suspension was again centrifuged at 150×g for 10 minutes at 20° C., and the resulting cell pellet was washed once using tissue culture medium. The washed cell pellet was finally resuspended in tissue culture medium, and cell density was adjusted to 5×10^6 cells/ml.
To the wells of a 96-well assay plate (Falcon MICROTEST III), 50 μl volumes of the splenocyte suspension were added. Competitor (conjugate) solutions were prepared and diluted in tissue culture medium and added to the wells of the assay plate in 25 μl volumes. To control wells, 25 μl of tissue culture medium was added. […] To the wells of the assay plate, 25 μl of either tissue culture medium or a solution containing recombinant human IL-2 (Pharmingen) at a concentration of 20 ng/ml (in tissue culture medium) was added.
Final results were quantitated as follows. Viable cell counts were performed for each separate well of the assay plate using the trypan blue exclusion method. Trypan blue is taken up and imparts a blue color to dead cells. Briefly, an aliquot of cells was twice diluted in 0.4% trypan blue stain (Sigma Chemical Co., St. Louis, Mo.) and incubated for 5 minutes before counting with a hemacytometer and an inverted microscope. The percentage of viable cells was calculated as the number of unstained cells per unit volume divided by the total number of stained and unstained cells×100. Cell counts for each duplicate set of wells were averaged, and cell proliferation was calculated as percent change from control cells using the following formula: [formula]
Percent inhibition of IL-2 induced proliferation was calculated as follows. [formula]

B10.RIII mice = test: Treatment of collagen-induced arthritis (CIA) in B10.RIII mice; settings: 2 mg/kg i.p.; for weight loss: alternate day treatment, observed for 84 days, PBS control about 5%±5%
Protocol: B10.RIII mice were injected with CII (200 μg) emulsified with complete Freund's adjuvant (CFA; 200 μg H37Ra). At day 21, mice were boosted with 100 μg of CII, randomized for CIA severity (13/group), and an alternate day treatment protocol was begun.

[2] = 48 hours incubation, MTS assay, compared by adriamycin concentration

Row | Compound | cytotoxicity against CTLL-2 T cells (FIG. 1) (mouse CTLL-2 cells; [2]) | specific binding to the IL-2 receptor [1] | weight loss (B10.RIII mice) | other results
1 | COc1cccc2c1C(=O)c1c(O)c3c(c(O)c1C2=O)C[C@@](O)(C(=O)CO)C[C@@H]3O[C@H]1C[C@H](N)[C@H](O)[C@H](C)O1 [adriamycin, reference compound] | – | – | – | cytotoxicity against CTLL-2 T cells (FIG. 1) (mouse CTLL-2 cells): rapidly diffuses into the cells and kills them
2 | PEG-TT23-ADR ({PEG}-TGLNRILLGFLG-{ADR}; reading uncertain) | kills such CTLL-2 T cells at concentrations much lower than that required for PEG-GFLG-ADR; also recorded: requires higher concentrations of adriamycin than unconjugated adriamycin | specifically bind to the IL-2 receptor | about 3%±6% | arthritis severity (cumulative daily arthritis scores) (B10.RIII mice; alternate day treatment from day 21, observed for 84 days, compared to PBS control (P≦0.02)): significantly greater number of mice with only minimum arthritis
3 | PEG-TT23: prepared according to Example 1 except that no adriamycin was conjugated; PEG coupled to peptide TT23 (SEQ ID NO:22) (TGLNRILLGFLG; not fully specified (N-terminus); also: PEG conjugate, attachment site not given here) | – | specifically binds to the IL-2 receptor | – | inhibition of IL-2-induced proliferation of murine splenocytes (FIG. 2) ([1]; recombinant human IL-2, 48 hours, trypan blue exclusion): very effectively inhibits proliferation
4 | PEG-Gly-Phe-Leu-Gly-ADR (GFLG; PEG and adriamycin conjugated; OTHER INFORMATION: Synthetic Construct) [PEG-GFLG-ADR, reference compound] | much lower than that required for PEG-GFLG-ADR | – | about 10%±8% | –
5 | TGLNRILLGFLG [peptide TT23] | – | – | – | amount needed to achieve similar levels of inhibition, relative to PEG-TT23 ([1]; IL-2-induced proliferation of murine splenocytes): about 100 fold
